Tests used:
S. meliloti cell cycle = test system: S. meliloti cell cycle; set-up: method as in PMID 24501120; details: ref [12]; cited from earlier work
[1] = test system: in vitro coupled transcription-translation (GFP reporter); assay: In vitro translation assay, GFP fluorescence; type: biochemical; details: same molarity, S3C Fig

| Substance | cell cycle changes (S. meliloti cell cycle) | translation inhibition by LL37 vs NCR247 [1] |
| --- | --- | --- |
| LL37: cationic peptide LL37 (LLGDFFRKSKEKIGKEFKRIVQRIKDFLRNLVPRTES; Antibacterial peptide LL-37; UniProt P49913 134-170, looked up) | cannot elicit cell cycle changes | very diminished phenotype as compared to the L-NCR247 and was lesser than the inhibition by D-NCR247 |
| Polymyxin B | cannot elicit cell cycle changes | – |
